Measurements: the NIST ThermoML archive (doi:10.1016/j.fluid.2017.09.019)

Assay: wn = mass fraction of the nth substance listed
Conditions: 101 kPa, Liquid; for viscosity: Concentric cylinders viscometry; for mass density: Vibrating tube method

CC(O)CN(C)C (stereo not given) [1-(dimethylamino)-2-propanol] + O
Conditions	mass density, 318.15 K [kg/m3]	mass density, 323.15 K [kg/m3]	mass density, 328.15 K [kg/m3]	mass density, 333.15 K [kg/m3]	viscosity, 318.15 K [mPa·s]	viscosity, 323.15 K [mPa·s]	viscosity, 328.15 K [mPa·s]	viscosity, 333.15 K [mPa·s]
w1 = 0.2	977.5	974.2	971.2	967.8	1.325	1.179	1.05	0.934
w1 = 0.25	974.3	971	967.6	964.2	1.562	1.363	1.201	1.067
w1 = 0.3	969.8	966.2	962.4	958.4	1.852	1.598	1.402	1.236
w1 = 0.35	964.1	960.2	955.6	950.9	2.194	1.868	1.62	1.483
w1 = 0.4	959.9	955.5	951.3	946.7	2.523	2.129	1.821	1.577
w1 = 0.45	953.6	949.4	944.2	939.2	2.808	2.36	2.008	1.724
w1 = 0.5	949	944.5	940.1	936.1	3.178	2.652	2.239	1.911
w1 = 0.6	930.7	925.9	921.2	916	3.577	2.974	2.486	2.106
w1 = 0.7	910.9	906.8	901.7	897.1	3.973	3.301	2.781	2.374
w1 = 0.8	889.4	884.6	880	875.3	3.577	2.909	2.471	2.182
w1 = 0.9	860.5	855.9	850.6	845	2.629	1.929	1.824	1.687
w1 = 0.95	844.4	839.5	834.6	830.9	1.921	1.357	1.348	1.236
w1 = 0.96	838.7	833.8	828.8	823.8	1.735	1.192	1.208	1.102
w1 = 0.98	832.6	827.7	822.8	817.9	1.2	1.003	0.983	0.853
w1 = 1	825.8	820.9	816	811.1	0.866	0.788	0.72	0.662
